Test results taken from patent publication US20070292951A1, “MEDIA AND METHODS FOR CULTURING PLANT EMBRYOS” (priority 1997, published 2007).

Columns and labels:
[1] = system: Brassica napus microspores; assay: Microspore embryogenesis in liquid half-strength NLN medium with different osmotica; assay type: cell-based, Brassica napus L. cv. Topas; conditions: for Induction of MD embryos: within two weeks, 13% sucrose, 8% mannitol or 25% PEG 4000 (w/v), mannitol and PEG media with about 0.08%-0.1% sucrose
Protocol: A mixed population consisting of microspores from mid- and late-uninucleate stages to young bicellular pollen was isolated from the flower buds using a protocol modified from that described by Ferrie and Keller, in: Gamborg and Phillips (eds) Plant Cell, Tissue and Organ Culture, Fundamental methods, pp 155-164, 1993 (Springer Verlag). For each treatment, twelve surface-sterilized buds (3.6-4.2 mm in length) were macerated in 5 ml half-strength B5 washing medium (Gamborg et al., Exp. Cell Res. 50:151-158, 1968) containing 13% sucrose (w/v) in 50 ml beakers. The crude suspension was filtered through 44 μm Nytex nylon mesh, both beakers and meshes were rinsed, and a total of 20 ml was collected into 50 ml centrifuge tubes and centrifuged at 150×g for 3 minutes. The pellets were resuspended in 5 ml of washing medium, the washing procedure was repeated twice, and the final supernatant was carefully pipetted out, leaving the pellet in approximately 0.3-0.4 ml of washing medium. Final resuspension was done by adding filter-sterilized half-strength NLN medium (Lichter, Z. Pflanzenphysiol. 105:427-434, 1982) containing 13% (w/v) sucrose as the control treatment; in the other two treatments, ½ NLN sucrose-free medium with 8% (w/v) mannitol or 25% (w/v) PEG 4000 (Fluka Chemika) was added, respectively. Therefore, the ½ NLN-mannitol and -PEG media contained only about 0.08%-0.1% sucrose, remaining from the washing medium.
Aliquots of […] of microspore suspension were plated into 10×15 mm sterile petri dishes, with an approximate plating density of 40,000 microspores/ml. Plates were first incubated at 35° C. for one hour followed by 33° C. for the next 14-18 hours and then placed on a shaker (50 rpm) in the dark at 24° C. for 14 days. During the first 8 days in culture, PEG and mannitol media were gradually diluted by adding to the plates an adequate volume of a simple ½ NLN medium, containing no sucrose. mannitol, or PEG, to give a final concentration of approximately 22% PEG and 7% mannitol. The concentration of sucrose in the control treatment was lowered the same way to a final concentration of 11%. After two weeks, plates with MD embryos were placed under light (16/8 hours photoperiod) at 24° C. for an additional week. Experiments dealing with mannitol as osmoticum were repeated three times with five replicates, while experiments dealing with PEG and sucrose as a control were repeated at least ten times with a minimum of three replicates.
Microspores at late unicellular stage and young bicellular pollen were isolated from the flower buds using a protocol for Brassica napus, modified from that described by Ferrie and Keller, in: Gamborg and Phillips (eds) Plant Cell, Tissue and Organ Culture, Fundamental methods, pp 155-164, 1993 (Springer Verlag). Twelve surface-sterilized buds (3.6-4.2 mm in length) were macerated in a 50 ml beaker with 5 ml half-strength B5 washing medium (Gamborg et al., Exp. Cell Res. 50:151-158, 1968) containing 13% sucrose (w/v). The crude suspension was filtered through 44 μm nylon mesh and centrifuged at 150×g for 3 minutes, and the pellet was resuspended in 5 ml of washing medium. The washing procedure was repeated twice, and the final supernatant was carefully pipetted out, leaving the pellet in approximately 0.3-0.4 ml of washing medium. Final resuspension was done by adding filter-sterilized half-strength NLN medium (Lichter, Z. Pflanzenphysiol 105:427-434, 1982) containing either 13% sucrose (w/v) as a control or 25% (w/v) polyethylene glycol 4000 (Fluka Chemika). Therefore, the final ½ NLN-PEG medium contained only about 0.08%-0.1% sucrose, remaining from the washing medium.
Aliquots of 10 ml of the microspore suspension were plated into 10×15 mm sterile petri dishes, with an approximate plating density of 40,000 microspores/ml. Plates were first incubated at 35° C. for one hour followed by 33° C. for the next 14-18 hours and then placed on a shaker (50 rpm) in the dark at 24° C. for 14 days. […]

[2] = system: Brassica napus MD embryos; assay: Conversion of three-week-old MD embryos into plantlets on hormone-free solid medium; assay type: cell-based; conditions: embryos grown on the named osmoticum
Protocol: Plates containing the embryos may then be placed under light at 24° C. for an additional week. Once placed under light, the embryos generally increase in size and become green quickly. Within one week under light, cotyledons are typically well-developed, often widely opened and dark green, and the embryos are morphologically similar to zygotic embryos dissected from ovules (see FIGS. 2A-2C). The three-week embryos may then be rinsed and transferred to culture containers containing a suitable medium, such as half-strength B5 medium containing 1% sucrose and no growth regulators. The conversion frequency is the percentage of MD embryos that develop roots, true leaves and a green color within 3-4 weeks. Aliquots of 10 ml of the microspore suspension were plated into 10×15 mm sterile petri dishes, with an approximate plating density of 40,000 microspores/ml. Plates were first incubated at 35° C. for one hour followed by 33° C. for the next 14-18 hours and then placed on a shaker (50 rpm) in the dark at 24° C. for 14 days. […] Conversion frequency (%) of sucrose- and PEG-cultured MD embryos was recorded based on presence of roots, appearance of first true leaves and green color of plantlets, with three replicates for each treatment.

`OC[C@@H](O)[C@@H](O)[C@H](O)[C@H](O)CO` [mannitol] was tested, and the “Cell divisions of microspores after heat shock treatment” value ([1]; mannitol solution) was “no divisions were observed” and the “Induction of MD embryos” value [1] was “yielded no embryos”.
`OC[C@H]1O[C@@](CO)(O[C@H]2O[C@H](CO)[C@@H](O)[C@H](O)[C@H]2O)[C@@H](O)[C@@H]1O` [sucrose] was tested, and the “Plantlet morphology after transfer to solid medium” value [2] was “hypocotyls were short, often thick (hyperhydrated) and aberrant”, the “Embryo length at heart-shaped stage” value ([1]; SEM) was “approximately 300 μm” and the “Embryo length at torpedo stage” value ([1]; SEM) was ≥ 400 μm. The “Proembryo size at globular-to-heart-shaped transition” value ([1]; about day 8, SEM) was 150-250 μm, the “Embryo length, cotyledonary stage” value ([1]; after two weeks in culture) was 2-4 mm and the “Starch grains and protein bodies in cotyledon stage embryos” value ([1]; light microscopy) was “abundant starch grains with no protein bodies”. The “Morphology of three-week-old MD embryos compared with zygotic embryos (14 and 15 DPA)” value ([1]; three weeks, last week under light) was “pale green, had elongated embryo axes and relatively small underdeveloped cotyledons” and the “Induction of MD embryos” value [1] was “developed into embryos”.
